Reference: patent publication US20230073449A1, “STROMA-FREE T CELL DIFFERENTIATION FROM HUMAN PLURIPOTENT STEM CELLS” (THE CHILDREN'S MEDICAL CENTER CORPORATION, priority 2020, published 2023)
pIC50: −log10 of the molar value. Entries after “also recorded” stand apart in the source; their conditions may differ.

What was measured:
[1] = tested on: 5F cells (5F HSPCs); experiment: Primary screen of Cayman epigenetic library in 5F cells, stromal-free T cell differentiation (proT readout); type: cell-based, human; settings: for CD5+ CD7+ %: 5F cells, control cells 11.60%; for CD5+ CD7+ % / Z score: e.g., at 500 nM; for Z score: calculated from the number of T progenitors after treatment, Z score greater than 3 = primary hit; for proT cells generated from 5F HSPCs after treatment with primary hits (fold change / number): first screen, FIG. 8
Source text: FIG. 6 is a schematic showing a primary screen for small molecule inhibitors of epigenetic factors that promote T cell specification, using the stromal-free T cell differentiation methods as described herein. “5F cells” refer to cells expressing 5 transcription factors (HOXA9, ERG, RORA, SOX4, and MYB). The Cayman epigenetic library contains more than 140 small molecules that are known to modulate the activity of a variety of epigenetic ‘writers and erasers’ and ‘reader’ proteins. It may include compounds that modulate the activity of methyltransferases, demethylases, histone acetyltransferases, histone deacetylases, and acetylated histone binding proteins; see e.g., caymanchem.com/product/11076/epigenetics-screening-library-(96-well).
FIG. 7 is a scatterplot showing identification of primary hits from the screen described in FIG. 6. Z scores were calculated for all the small molecules based on the number of T progenitors after treatment. Any small molecule with a Z score greater that 3 was considered as a primary hit. See e.g., Table 2.
FIG. 8 is a bar chart showing fold change of the proT cells generated from 5F HSPCs after treatment with primary hits identified in FIG. 7 (see e.g., Table 2).
(§1) A group of epigenetic regulators were tested for their ability to promote T cell differentiation. […] UNCO224 is an inhibitor of G9a/GLP, so a variety of other G9a/GLP inhibitors were tested.

[2] = tested on: class I HDAC (e.g., HDAC1, HDAC2, HDAC3); settings: cited from earlier work
[3] = tested on: MDA-MB-231 cells; settings: in MDA-MB-231 cells; cited from earlier work
[4] = tested on: CD34+ CD45+ HSPCs; experiment: Colony-forming unit (CFU) assay of CD34+ CD45+ HSPCs; type: cell-based, human; settings: FIG. 14C
Protocol: (§2) FIG. 14A-14C is a series of schematics and graphs showing that UNCO224 enhances T cell commitment at expense of erythroid/myeloid potential. FIG. 14A is a schematic showing a test of whether UNCO224 specifically affects T cell differentiation. iPSC-derived CD34+ HE cells were treated with UNCO224 and differentiated into CD34+ CD45+ hematopoietic stem and progenitor cells (HSPC). These HSPCs were used to generate T cells, erythroid cells, and myeloid cells to determine their multipotency. FIG. 14B is a bar chart showing fold change of proT cells generated from CD34+ CD45+ HSPC cells after treatment with UNCO224 (500 nM). […] FIG. 14C is a bar chart showing number of different types of colonies generated from CD34+ CD45+ HSPCs in a colony-forming unit (CFU) assay. E, erythroid; M, macrophage; G, granulocyte; GM, granulocyte/macrophage; GEMM, granulocyte/erythroid/macrophage/megakaryocyte.
UNCO224 enhanced T cell commitment at expense of erythroid/myeloid potential. […] UNCO224 also promoted T cell specification rather than cell proliferation. […] Without wishing to be bound by theory, it is anticipated that H3K9 methylation mediates repression of lymphoid genes. As such, treatment with inhibitors of H3K9 methylation (see e.g., FIG. 6-16, Tables 2-3) promotes T cell differentiation, e.g., when using stromal-free T cell differentiation methods as described herein. […]

[5] = tested on: iPSC-derived CD34+ hemogenic endothelial (HE) cells; experiment: Second screen and dose response in wild type iPSC-derived CD34+ hemogenic endothelial (HE) cells, stromal-free T cell differentiation; type: cell-based, human; settings: for proT cells generated from CD34+ HE cells after treatment with G9a inhibitors at different doses: FIG. 13B-13F; for Exemplary effective dose(s): promotion of T cell differentiation from CD34+ HE cells, 13B-13F
Protocol: FIG. 9 is a schematic showing a second screen using wild type iPSC-derived CD34+ hemogenic endothelial (HE) cells (not 5F HSPCs, e.g., as used in […] and Table 2), to test small molecule inhibitors of epigenetic factors for promotion of T cell differentiation.
FIG. 10A-10B is a series of graphs showing the results of the screen from FIG. 9. FIG. 10A is a scatterplot of Z scores, which were calculated for all the small molecules based on the number of T progenitors after treatment. Any small molecule with a Z score greater that 3 was considered as a primary hit. FIG. 10B is a bar graph showing verification of the primary hits. Primary hits were tested in triplicate.
FIG. 12A is a schematic summarizing the experiments (see e.g., FIG. 6-11, Table 2). FIG. 12B is a bar chart showing fold change of proT cells generated from CD34^+ HE cells after treated with UNCO224 at different doses.
FIG. 13A-13F is a series of schematics and graphs showing that G9 inhibitors promote T cell differentiation using the stromal-free differentiation methods as described herein. FIG. 13A is a schematic summarizing the experiments (see e.g., FIG. 6-12, Table 2). FIGS. 13B-13E are a bar charts showing fold change of proT cells generated from CD34^+ HE cells after treatment with other G9a inhibitors at different doses.
as §1

[6] = tested on: CD34+ CD45+ HSPC cells; experiment: T cell differentiation of CD34+ CD45+ HSPCs after UNC0224 treatment; type: cell-based, human
Protocol: as §2
FIG. 15A-15C is a series of graphs showing that UNCO224 promotes T cell specification rather than cell proliferation. FIG. 14B is a bar chart showing fold change of proT cells generated from CD34+ CD45+ HSPC cells after treatment with UNCO224 (500 nM). […] FIG. 14B is a bar chart showing fold change of total cell numbers after 14 days of T cell differentiation of CD34+ CD45+ HSPCs treated with DMSO or UNCO224. […] FIG. 14C is a bar chart showing the percentage of proT cells generated from CD34+ CD45+ HSPCs treated with DMSO or UNCO224. […] N=3, **** P≤0.0001.
UNCO224 enhanced T cell commitment at expense of erythroid/myeloid potential. […] UNCO224 also promoted T cell specification rather than cell proliferation. […] Without wishing to be bound by theory, it is anticipated that H3K9 methylation mediates repression of lymphoid genes. As such, treatment with inhibitors of H3K9 methylation (see e.g., FIG. 6-16, Tables 2-3) promotes T cell differentiation, e.g., when using stromal-free T cell differentiation methods as described herein. Such H3K9 methylation inhibitors can be used in place of, or in combination with, inhibition of histone methyltransferases (e.g., EZH1 knockdown).

[7] = tested on: HDAC; settings: pan-HDAC, with exception for HDAC6; cited from earlier work
[8] = target: class III isoenzyme SIRT1 (Homo sapiens, UniProt Q96EB6); settings: cited from earlier work
class III isoenzyme SIRT1, sequence (Q96EB6 whole entry): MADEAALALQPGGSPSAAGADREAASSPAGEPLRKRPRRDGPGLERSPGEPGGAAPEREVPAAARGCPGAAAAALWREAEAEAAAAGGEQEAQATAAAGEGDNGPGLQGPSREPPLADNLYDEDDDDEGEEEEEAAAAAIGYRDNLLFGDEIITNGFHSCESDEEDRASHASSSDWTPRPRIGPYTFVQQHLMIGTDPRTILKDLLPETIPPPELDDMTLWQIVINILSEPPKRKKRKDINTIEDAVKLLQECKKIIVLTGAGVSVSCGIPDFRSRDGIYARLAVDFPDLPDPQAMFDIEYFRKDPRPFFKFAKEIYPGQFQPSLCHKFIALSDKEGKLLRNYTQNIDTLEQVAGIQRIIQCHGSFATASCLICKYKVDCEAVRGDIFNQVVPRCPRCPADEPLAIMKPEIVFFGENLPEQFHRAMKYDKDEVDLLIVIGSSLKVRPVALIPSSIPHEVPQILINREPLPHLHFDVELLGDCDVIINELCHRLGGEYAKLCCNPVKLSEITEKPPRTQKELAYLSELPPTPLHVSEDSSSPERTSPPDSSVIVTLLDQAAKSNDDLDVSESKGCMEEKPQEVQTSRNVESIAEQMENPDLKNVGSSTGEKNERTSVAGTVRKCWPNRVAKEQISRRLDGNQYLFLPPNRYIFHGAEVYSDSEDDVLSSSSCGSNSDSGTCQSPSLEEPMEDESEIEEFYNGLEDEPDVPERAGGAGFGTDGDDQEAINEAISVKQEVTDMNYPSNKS

Compound | CD5+ CD7+ % [1] [%] | Z score [1] | other results
O=C(CCCCCCC(=O)Nc1ccc(I)cc1)NO [4-iodo-SAHA] | 25.3 | 5.895 | –
CC(C)C(C(=O)Nc1ccc(C(=O)NO)cc1)c1ccccc1 (stereo not shown) [s-HDAC-42] | 43.2 | 4.263 | –
Cn1cc(/C=C/C(=O)c2cccc(F)c2)cc1/C=C/C(=O)NO [MC1568] | 14.0 | 5.829 | proT cells generated from 5F HSPCs after treatment with primary hits (fold change / number) [1]: significantly increased; also recorded: confirmed to promote T cell specification; inhibition of class I HDAC activity [2]: Class II HDAC (e.g., HDAC4 and HDAC5) inhibitor. Displays no inhibition of class I HDAC activity (e.g., HDAC1, HDAC2, HDAC3).
COc1cc2c(NC3CCN(C4CCCCC4)CC3)nc(N3CCCN(C(C)C)CC3)nc2cc1OCCCN1CCCCC1 [UNC0646] | – | – | pIC50 [3]: 7.59
Cc1cc(Nc2ccc(NC(=O)c3ccc(Nc4ccnc5ccccc45)cc3)cc2)nc(N)n1 [SGI-1027] | 19.9 | 0.09357 | –
O=C(CCCCCCC(=O)Nc1ccccc1)NO [SAHA, suberoylanilide hydroxamic acid] | 34.7 | 7.987 | –
O=C(CCCCCCC(=O)Nc1cccnc1)NO [Pyroxamide] | 11.6 | 3.122 | –
COc1cc2c(NC3CCN(C)CC3)nc(N3CCCN(C)CC3)nc2cc1OCCCN(C)C [UNC0224] | 15.0 | 3.475 | number of erythroid or myeloid lineage colonies [4]: significant decrease; proT cells generated from 5F HSPCs after treatment with primary hits (fold change / number) ([1]; listed as UNCO224): significantly increased; also recorded: confirmed to promote T cell specification; proT cells generated from CD34+ HE cells after treatment with G9a inhibitors at different doses [5]: capable of promoting T cell differentiation; fold change of proT cells generated from CD34+ HE cells at different doses ([5]; dose response, FIG. 12B): dose-dependent manner; proT cells generated from CD34+ HE cells (verification of primary hits) ([5]; second screen, primary hits tested in triplicate, FIG. 10B, listed as UNCO224): significantly increased; also recorded: significant increase; fold change of CD5+ CD7+ proT cells generated from CD34+ CD45+ HSPC cells ([6]; UNC0224 500 nM vs DMSO, FIG. 14B/15A): significant increase; fold change of total cell numbers ([6]; after 14 days of T cell differentiation, vs DMSO): significant decrease; percentage of CD5+ CD7+ proT cells ([6]; vs DMSO, N=3): significant increase
CCCCc1nc2cc(/C=C/C(=O)NO)ccc2n1CCN(CC)CC [SB939] | 39.4 | 5.042 | pIC50 [7]: 6.85 to 7.40; activity against SIRT1 [8]: no activity
COC(=O)c1ccc2c(c1)nc(NC(=O)c1ccccc1)n2CCCc1ccccc1 [BRD4770] | – | – | proT cells generated from CD34+ HE cells after treatment with G9a inhibitors at different doses [5]: capable of promoting T cell differentiation; also recorded: significantly increased; Exemplary effective dose(s) ([5]; FIG. 12B): 200 nM
COc1cc2c(NC3CCN(CC4CCCCC4)CC3)nc(N3CCCN(C(C)C)CC3)nc2cc1OCCCN1CCCCC1 [UNC0631] | – | – | pIC50 [3]: 7.60
COc1cc2c(NC3CCN(C(C)C)CC3)nc(C3CCCCC3)nc2cc1OCCCN1CCCC1 [UNC0638] | – | – | proT cells generated from CD34+ HE cells after treatment with G9a inhibitors at different doses [5]: capable of promoting T cell differentiation; also recorded: significantly increased; Exemplary effective dose(s) ([5]; FIG. 12B): 8 nM
O=C(CCCCCN1C(=O)c2cccc3cccc(c23)C1=O)NO [Scriptaid] | 19.7 | 3.857 | –
Oxamflatin [Oxaflatin] | 12.4 | 6.54 | –
CN(C)c1ccc(C(=O)NCCCCCC(=O)NO)cc1 [CAY10398] | 36.9 | 4.181 | –
CNCc1ccc(-c2[nH]c3cc(F)cc4c3c2CCNC4=O)cc1 [Rucaparib] | 37.2 | 0.4679 | –
COCCCn1c(N)c(C(=O)NC2CCCC2)c2nc3ccccc3nc21 [CAY10591] | 25.9 | 8.576 | proT cells generated from 5F HSPCs after treatment with primary hits (fold change / number) [1]: significantly increased; also recorded: confirmed to promote T cell specification
COc1cc2nc(N3CCCN(C)CC3)nc(NC3CCN(Cc4ccccc4)CC3)c2cc1OC [BIX01294] | – | – | proT cells generated from CD34+ HE cells after treatment with G9a inhibitors at different doses [5]: capable of promoting T cell differentiation; also recorded: significantly increased; Exemplary effective dose(s) ([5]; FIG. 12B): 200 nM
COc1cc2c(NC3CCN(C(C)C)CC3)nc(N3CCC(F)(F)CC3)nc2cc1OCCCN1CCCC1 [UNC0642] | – | – | proT cells generated from CD34+ HE cells after treatment with G9a inhibitors at different doses [5]: capable of promoting T cell differentiation; also recorded: significantly increased; Exemplary effective dose(s) ([5]; FIG. 12B): 40 nM
